Reference: patent publication US8202910B2 (Sequella, Inc., priority 2006, dated 2012)
Entries after “also recorded” stand apart in the source; their conditions may differ.

Columns and labels:
[1] = test system: monkey kidney cells (Vero); assay: In vitro toxicity, Vero cells; format: cell-based; conditions: Primates
Procedure: Twenty six compounds (including 37, 59 and 109) were tested in an in vitro model of toxicity using monkey kidney cells (Vero) and human cervical cancer cells (HeLa) using methods well known to those skilled in the art. The data from this toxicity testing and the MIC data were used to calculate a selectivity index (SI), the ratio of IC50:MIC (Table 15). Selectivity Indexes were ranging from 1.76 to 16.67.

[2] = Toxicity, dose escalation study in mice; conditions: C57BL/6, mouse, in vivo
Procedure: Toxicity was assessed using a dose escalation study. This study was performed with ten C57BL/6 mice per candidate. Every two days, the mice were administered an increased concentration of the drug, and monitored for detrimental effects. The administration scheme was 50, 100, 200, 400, 600, 800 and 1000 mg/kg.

M. tuberculosis H37Rv = assay: Two-drug combination growth inhibition, BACTEC 460, x/y quotient; format: cell-based; conditions: for interaction of SQ109 with isoniazid: both drugs at 0.5 MIC
[3] = sub-MIC concentrations, listed as SQ109

In the case of `CC(C)=CCC/C(C)=C/CNCCNC1C2CC3CC(C2)CC1C3` (centres unmarked) [Compound 109, N-Geranyl-N′-(2-adamanthyl)ethane-1,2-diamine], the IC50 [1] is reported as 26 µM, the tolerated dose [2] is reported as 800 mg/kg and the “growth inhibition of inoculum” value (M. tuberculosis H37Rv; 0.5 MIC SQ109 in combination with 0.1 MIC RIF) is reported as “greater than 99%”. For the same compound, the “Synergy quotient (x/y)” value (M. tuberculosis H37Rv; SQ109 1/10 MIC + INH ½ MIC) was 1, the “Synergy quotient (x/y)” value (M. tuberculosis H37Rv; SQ109 1/10 MIC + MOX ½ MIC) was 1 and the “Synergy quotient (x/y)” value (M. tuberculosis H37Rv; SQ109 1/10 MIC + MOX ⅕ MIC) was 1. The “Synergy quotient (x/y)” value (M. tuberculosis H37Rv; SQ109 1/10 MIC + RIF 1/10 MIC) was 1, the “Synergy quotient (x/y)” value (M. tuberculosis H37Rv; SQ109 1/10 MIC + RIF 1/20 MIC) was 1 and the “Synergy quotient (x/y)” value (M. tuberculosis H37Rv; SQ109 1/10 MIC + RIF ¼ MIC) was 1. The “Synergy quotient (x/y)” value (M. tuberculosis H37Rv; SQ109 1/10 MIC + RIF ½ MIC) was 0.16, the “Synergy quotient (x/y)” value (M. tuberculosis H37Rv; SQ109 1/10 MIC + SM ½ MIC) was 0.98 and the “Synergy quotient (x/y)” value (M. tuberculosis H37Rv; SQ109 1/20 MIC + INH ½ MIC) was 1. For the same compound, the “Synergy quotient (x/y)” value (M. tuberculosis H37Rv; SQ109 1/20 MIC + MOX ½ MIC) was 1, the “Synergy quotient (x/y)” value (M. tuberculosis H37Rv; SQ109 1/20 MIC + MOX ⅕ MIC) was 1 and the “Synergy quotient (x/y)” value (M. tuberculosis H37Rv; SQ109 1/20 MIC + RIF 1/10 MIC) was 1. The “Synergy quotient (x/y)” value (M. tuberculosis H37Rv; SQ109 1/20 MIC + RIF 1/20 MIC) was 1, the “Synergy quotient (x/y)” value (M. tuberculosis H37Rv; SQ109 1/20 MIC + RIF ¼ MIC) was 1 and the “Synergy quotient (x/y)” value (M. tuberculosis H37Rv; SQ109 1/20 MIC + RIF ½ MIC) was 0.32. The “Synergy quotient (x/y)” value (M. tuberculosis H37Rv; SQ109 1/20 MIC + SM ½ MIC) was 1, the “Synergy quotient (x/y)” value (M. tuberculosis H37Rv; SQ109 ½ MIC + INH ½ MIC) was 0.45 and the “Synergy quotient (x/y)” value (M. tuberculosis H37Rv; SQ109 ½ MIC + MOX ½ MIC) was 0.45. The “Synergy quotient (x/y)” value (M. tuberculosis H37Rv; SQ109 ½ MIC + MOX ⅕ MIC) was 0.51, the “Synergy quotient (x/y)” value (M. tuberculosis H37Rv; SQ109 ½ MIC + RIF 1/10 MIC) was 0.29 and the “Synergy quotient (x/y)” value (M. tuberculosis H37Rv; SQ109 ½ MIC + RIF 1/20 MIC) was 0.61. For the same compound, the “Synergy quotient (x/y)” value (M. tuberculosis H37Rv; SQ109 ½ MIC + RIF ¼ MIC) was 0.23, the “Synergy quotient (x/y)” value (M. tuberculosis H37Rv; SQ109 ½ MIC + RIF ½ MIC) was 0.12 and the “Synergy quotient (x/y)” value (M. tuberculosis H37Rv; SQ109 ½ MIC + SM ½ MIC) was 0.57. For the same compound, the “Synergy quotient (x/y)” value (M. tuberculosis H37Rv; SQ109 ⅕ MIC + INH ½ MIC) was 0.83, the “Synergy quotient (x/y)” value (M. tuberculosis H37Rv; SQ109 ⅕ MIC + MOX ½ MIC) was 0.96 and the “Synergy quotient (x/y)” value (M. tuberculosis H37Rv; SQ109 ⅕ MIC + MOX ⅕ MIC) was 1. The “Synergy quotient (x/y)” value (M. tuberculosis H37Rv; SQ109 ⅕ MIC + RIF 1/10 MIC) was 1, the “Synergy quotient (x/y)” value (M. tuberculosis H37Rv; SQ109 ⅕ MIC + RIF 1/20 MIC) was 1 and the “Synergy quotient (x/y)” value (M. tuberculosis H37Rv; SQ109 ⅕ MIC + RIF ½ MIC) was 0.4. The “Synergy quotient (x/y)” value (M. tuberculosis H37Rv; SQ109 ⅕ MIC + SM ½ MIC) was 0.74, the “interaction of SQ109 with isoniazid” value (M. tuberculosis H37Rv; listed as SQ 109) was “strong synergistic activity” and the “interaction of SQ109 with isoniazid” value (M. tuberculosis H37Rv; listed as SQ109) was “synergy”. For the same compound, the “interaction of SQ109 with pyrazinamide” value (M. tuberculosis H37Rv; sub-MIC concentrations, PZA Test Medium, listed as SQ109) was “neither synergy nor additive effects; also recorded: did not show any positive interaction”, the “interaction of SQ109 with rifampicin” value (M. tuberculosis H37Rv; sub-MIC concentrations, listed as SQ 109) was “strong synergistic activity” and the “interaction of SQ109 with ethambutol” value (M. tuberculosis H37Rv; [3]) was “neither synergy nor additive effects; also recorded: did not show any positive interaction; also recorded: no interaction”. The “interaction of SQ109 with rifampicin” value (M. tuberculosis H37Rv; [3]) was “marked synergy” and the “interaction of SQ109 with streptomycin” value (M. tuberculosis H37Rv; [3]) was “additive effect; also recorded: only additive interaction”.
